Values quoted from earlier work, collected in US20030232078A1, “Formulation & dosage form for the controlled delivery of therapeutic agents” (priority 2001, published 2003).

Conditions: conventional formulations; well known

absorption in the lower GI tract | SMILES
not absorbed in significant amounts | N[C@@H](Cc1ccc(O)c(O)c1)C(=O)O [L-dopa]
not absorbed in significant amounts | C[C@@](Cc1ccc(O)c(O)c1)(NN)C(=O)O [carbidopa]

SMILES | absorption in the lower GI tract
CS(=O)(=O)Nc1ccc(F)c([C@@H](O)CN)c1.Cl [ABT-232] | not absorbed in significant amounts
